pIC50: −log10 of the molar value.
Target: T1, Human TRPV3 (Homo sapiens, UniProt Q8NET8)
T1 construct: expressed in transfected cells; host or cells: CHO cells (G-418 selected)
T1 sequence (Q8NET8 1-790): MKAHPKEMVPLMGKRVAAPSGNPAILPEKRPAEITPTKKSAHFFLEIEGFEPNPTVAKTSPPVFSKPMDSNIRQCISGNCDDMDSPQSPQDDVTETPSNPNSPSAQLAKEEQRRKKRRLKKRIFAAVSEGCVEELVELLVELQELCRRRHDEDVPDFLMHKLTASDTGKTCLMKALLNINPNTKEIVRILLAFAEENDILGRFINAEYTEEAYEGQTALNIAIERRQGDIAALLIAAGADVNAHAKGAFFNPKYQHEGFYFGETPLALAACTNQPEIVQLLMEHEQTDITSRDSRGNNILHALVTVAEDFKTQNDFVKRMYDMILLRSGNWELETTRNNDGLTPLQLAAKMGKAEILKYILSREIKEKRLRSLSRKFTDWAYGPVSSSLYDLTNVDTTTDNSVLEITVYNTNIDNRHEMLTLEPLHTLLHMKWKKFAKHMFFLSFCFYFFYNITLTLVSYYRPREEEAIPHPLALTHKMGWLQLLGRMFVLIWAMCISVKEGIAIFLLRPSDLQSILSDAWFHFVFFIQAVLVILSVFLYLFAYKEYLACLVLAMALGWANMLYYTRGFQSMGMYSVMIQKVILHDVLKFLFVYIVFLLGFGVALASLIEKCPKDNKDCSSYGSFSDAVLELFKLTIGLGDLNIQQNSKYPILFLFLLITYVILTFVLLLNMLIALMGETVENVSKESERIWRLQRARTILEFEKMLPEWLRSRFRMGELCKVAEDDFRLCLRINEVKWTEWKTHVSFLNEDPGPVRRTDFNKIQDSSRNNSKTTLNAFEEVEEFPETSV
Assay: 45Calcium uptake assay: inhibition of 2-APB induced cellular uptake of radioactive calcium
Assay type: cell-based
Conditions: human TRPV3 expressing CHO cells, 2-APB 500 μM; for inhibition at 1 µM: 1.0 μM compound, read-out: Percentage inhibition at 1.0 μM; for inhibition at 10 µM: 10.0 μM compound, read-out: Percentage inhibition at 10.0 μM
How it was run: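 CHO cells stably expressing human TRPV3 (~50,000/well) were preincubated with compounds for 10 min in medium containing 0.1% BSA, 1.8 mM CaCl2 and 0.5% DMSO. Then 500 μM 2-APB and 5 μCi/ml 45Ca2+ were added for 4 min. Lysate radioactivity was expressed as % of maximal uninhibited response, and IC50 came from nonlinear regression, alongside % inhibition at 1.0 and 10.0 μM.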

SMILES | inhibition at 1 µM | inhibition at 10 µM | pIC50
O=C(CCc1ccc2c(c1)OCCO2)NC1CC2(CCC2)Oc2ccc(F)cc21 (stereo not drawn) [Example 81] | 29.1% | 54.8% | –
O=C(CCc1cccc2c1OCO2)NC1CC2(CCC2)Oc2c(Cl)cccc21 (stereo not drawn) [Example 83, 3-(1,3-Benzodioxol-4-yl)-N-(8-chloro-3,4-dihydrospiro[chromene-2,1′-cyclobutan]-4-yl)propanamide] | 11% | 83.2% | –
O=C(CCc1cccc2c1OCCO2)NC1CC2(CCC2)Oc2ccc(Cl)cc21 (stereo not drawn) [Example 84] | 11% | 83.2% | –
COc1cccc(CCC(=O)NC2CC3(CCCC3)Oc3ccc(Cl)cc32)c1OC1CCCC1 (stereo not drawn) [Example 86, N-(6-Chloro-3,4-dihydrospiro[chromene-2,1′-cyclopentan]-4-yl)-3-(2-cyclopentyloxy-3-methoxy)propanamide] | 11.6% | 66% | –
COc1cccc(CCC(=O)NC2CC3(CCCCC3)Oc3ccc(Cl)cc32)c1OC1CCCC1 (stereo not drawn) [Example 87, N-(6-Chloro-3,4-dihydrospiro[chromene-2,1′-cyclohexan]-4-yl)-3-(2-cyclopentyloxy-3-methoxy)phenylpropanamide] | 26.7% | 67.3% | –
COc1cccc(CCC(=O)NC2CC(C)(C)Oc3ccccc32)c1OC1CCCC1 (stereo not drawn) [Example 88, N-(2,2-Dimethyl-3,4-dihydro-2H-chromen-4-yl)-3-(2-cyclopentyloxy-3-methoxy)phenylpropanamide] | 17.1% | 93.2% | –
COc1cccc(CCC(=O)NC2CCSc3ccc(Cl)cc32)c1OC1CCCC1 (stereo not drawn) [Example 89, N-(6-chloro-3,4-dihydro-2H-thiochromen-4-yl)-3-(2-cyclopentyloxy-3-methoxyphenyl)-propanamide] | 38% | 87.3% | –
COc1ccc2ccccc2c1CCC(=O)NC1CCSc2ccc(Cl)cc21 (stereo not drawn) [Example 90, N-(6-chloro-3,4-dihydro-2H-thiochromen-4-yl)-3-(2-methoxy-1-naphthyl)propanamide] | 49.2% | 91.4% | –
O=C(CCCc1ccccc1OC1CCCC1)NC1CC2(CCC2)Oc2ccc(Cl)cc21 (stereo not drawn) [Example 91, N-(6-Chloro-3,4-dihydrospiro[chromene-2,1′-cyclobutan]-4-yl)-4-(2-cyclopentyloxy-phenyl)butanamide] | 51% | 82.5% | –
COc1cccc(CCCC(=O)NC2CC3(CCC3)Oc3ccc(Cl)cc32)c1OC1CCCC1 (stereo not drawn) [Example 92, N-(6-Chloro-3,4-dihydrospiro[chromene-2,1′-cyclobutan]-4-yl)-4-[2-(cyclopentyloxy)-3-methoxyphenyl]butanamide] | 86.1% | 95.8% | > 6.30
COc1cccc(CCCC(=O)N[C@@H]2CC3(CCC3)Oc3c(Cl)cccc32)c1OC1CCCC1 [Example 95, (4R)—N-(8-Chloro-3,4-dihydrospiro[chromene-2,1′-cyclobutan]-4-yl)-4-(2-cyclopentyloxy-3-methoxyphenyl)butanamide] | 71.8% | 96.5% | 6.00 to 6.30
COc1cccc(CCCC(=O)N[C@H]2CC3(CCC3)Oc3c(Cl)cccc32)c1OC1CCCC1 [Example 96, (4S)—N-(8-Chloro-3,4-dihydrospiro[chromene-2,1′-cyclobutan]-4-yl)-4-(2-cyclopentyloxy-3-methoxyphenyl)butanamide] | 44.4% | 80.9% | –
COc1cccc(CCCC(=O)NC2CC3(CCC3)Oc3c(Cl)cc(F)cc32)c1OC1CCCC1 (stereo not drawn) [Example 97, N-(8-Chloro-6-fluoro-3,4-dihydrospiro[chromene-2,1′-cyclobutan]-4-yl)-4-(2-cyclopentyloxy-3-methoxyphenyl)butanamide] | 60% | 90.3% | 5.70 to 6.00
COc1cccc(CCCC(=O)NC2CC3(CCC3)Oc3c(Cl)cc(Cl)cc32)c1OC1CCCC1 (stereo not drawn) [Example 98, N-(6,8-Dichloro-3,4-dihydrospiro[chromene-2,1′-cyclobutan]-4-yl)-4-(2-cyclopentyloxy-3-methoxyphenyl)butanamide] | 36.9% | 69.5% | –
COc1cccc(CCCC(=O)NC2CC3(CCC3)Oc3cc(OCc4ccccc4)ccc32)c1OC1CCCC1 (stereo not drawn) [Example 99, N-(7-Benzyloxy-3,4-dihydrospiro[chromene-2,1′-cyclobutan]-4-yl)-4-(2-cyclopentyloxy-3-methoxyphenyl)butanamide] | 19.9% | 19.6% | –
COc1cccc(CCCC(=O)NC2CC3(CCC3)Oc3cc(O)ccc32)c1OC1CCCC1 (stereo not drawn) [Example 100, N-(7-Hydroxy-3,4-dihydrospiro[chromene-2,1′-cyclobutan]-4-yl)-4-(2-cyclopentyloxy-3-methoxyphenyl)butanamide] | 19.4% | 87% | –
COc1ccc(C(=O)CCC(=O)NC2CC3(CCC3)Oc3ccc(Cl)cc32)c2ccccc12 (stereo not drawn) [Example 101, N-(6-Chloro-3,4-dihydrospiro[chromene-2,1′-cyclobutan]-4-yl)-4-oxo-4-(4-methoxy-naphthyl)butanamide] | 26.5% | 63.2% | –
COc1ccc(C(O)CCC(=O)NC2CC3(CCC3)Oc3ccc(Cl)cc32)c2ccccc12 (stereo not drawn) [Example 102, N-(6-Chloro-3,4-dihydrospiro[chromene-2,1′-cyclobutan]-4-yl)-4-hydroxy-4-(4-methoxynaphthyl)butanamide] | 26.6% | 42.8% | –
COc1cccc(CCCC(=O)NC2CC(C)(C)Oc3ccc(Cl)cc32)c1OC1CCCC1 (stereo not drawn) [Example 103, N-(6-Chloro-2,2-dimethyl-3,4-dihydro-2H-chromen-4-yl)-4-(2-cyclopentyloxy-3-methoxy)phenylbutanamide] | 69.4% | 96.4% | 6.00 to 6.30

Other lines, results leading:

inhibition at 1 µM | inhibition at 10 µM | pIC50 | SMILES
39.4% | 81.8% | – | O=C(CCc1c[nH]c2ccccc12)NC1CC2(CCC2)Oc2ccc(Cl)cc21 (stereo not drawn) [Example 77, N-(6-Chloro-3,4-dihydrospiro[chromene-2,1′-cyclobutan]-4-yl)-3-(1H-indol-3-yl)-propanamide]
46.1% | 91.3% | 6.00 to 6.30 | COc1ccc(CCC(=O)NC2CC3(CCC3)Oc3ccc(Cl)cc32)c2cc(C)oc12 (stereo not drawn) [Example 78, N-(6-chloro-3,4-dihydrospiro[chromene-2,1′-cyclobutan]-4-yl)-3-(2-methyl, 7-methoxy-1-benzofuran-4-yl)propanamide]
51.5% | 95.5% | – | COc1cc(CCC(=O)N[C@@H]2CC3(CCC3)Oc3ccc(Cl)cc32)cc2cc(C)oc12 [Example 79, N-[(4R)-6-Chloro-3,4-dihydrospiro[chromene-2,1′-cyclobutan]-4-yl]-3-(7-methoxy-2-methyl-1-benzofuran-5-yl)propanamide]
73.5% | 98.6% | 6.00 to 6.30 | COc1cc(CCC(=O)N[C@H]2CC3(CCC3)Oc3ccc(Cl)cc32)cc2cc(C)oc12 [Example 80, N-[(4S)-6-chloro-3,4-dihydrospiro[chromene-2,1′-cyclobutan]-4-yl]-3-(7-methoxy-2-methyl-1-benzofuran-5-yl)propanamide]
24.3% | 90.9% | – | O=C(CCc1cccc2c1OCO2)NC1CC2(CCC2)Oc2ccc(Cl)cc21 (stereo not drawn) [Example 82, 3-(1,3-Benzodioxol-4-yl)-N-[6-chloro-3,4-dihydrospiro[chromene-2,1′-cyclobutan]-4-yl]propanamide]
76.9% | 90.4% | > 6.30 | O=C(CCc1cccc2c1oc1ccccc12)NC1CC2(CCC2)Oc2ccc(Cl)cc21 (stereo not drawn) [Example 85, N-(6-Chloro-3,4-dihydrospiro[chromene-2,1′-cyclobutan]-4-yl)-3-(dibenzo[b,d]furan-4-yl)propanamide]
72.8% | 94.2% | 6.00 to 6.30 | COc1cccc(CCCC(=O)N[C@@H]2CC3(CCC3)Oc3ccc(Cl)cc32)c1OC1CCCC1 [Example 93, N-(4R)-6-Chloro-3,4-dihydrospiro[chromene-2,1′-cyclobutan]-4-yl-4-(2-cyclopentyloxy-3-methoxyphenyl)butanamide]
79.7% | 97.2% | > 6.30 | COc1cccc(CCCC(=O)N[C@H]2CC3(CCC3)Oc3ccc(Cl)cc32)c1OC1CCCC1 [Example 94]
